Each structure is given as a SMILES string.

Tested on in the first data set: not listed separately
The experiment in a line: GI S9 stability (Ex. Z), cyno intestinal S9. Format: in vitro ADME. Particulars: cynomolgus monkey, pooled intestinal S9 fractions; cyno intestinal S9, 1.0 mg/mL protein, 2 μM substrate, pH 7.4; read-out: GIS9 Cyno T½ (per Ex. Z). As to the method: Example Z: GI S9 stability data:
Stock solutions of test compounds in dimethyl sulfoxide (DMSO) having a final concentration of 10 mM were prepared and used in all experiments. Sekisui XenoTech (Kansas City, KS) provided pooled intestinal S9 fractions. All other chemicals were purchased from Sigma-Aldrich (St. Louis, MO) or VWR (West Chester, PA). Internal Standard/Quench (IS/Q) used to stop reactions was 100 nM labetalol in (by volume) methanol (10%) and acetonitrile (90%).
Stability in Intestinal S9 Fractions: Duplicate aliquots of test compound or positive control substrate were added to S9 stock diluted with phosphate buffered saline (137 mM NaCl, 2.7 mM KCl, 10 mM phosphate buffer), pH 7.4, to obtain a protein concentration of 1.0 mg/mL. The metabolic reactions were initiated by the addition of the substrates to the S9 reaction mixture to a final concentration of 2 μM. At 0, 10, 20, 30, 60 and 120 min, 25 μL aliquots of the reaction mixture were transferred to plates containing 225 μl of IS/Q solution. After quenching, the plates were centrifuged at 3000×g for 30 minutes. 150 μL aliquots of each supernatant were dried down then reconstituted with 300 μL water. Aliquots (10 μL) of the prepared samples were analyzed on a Thermo Q-Exactive mass spectrometer as described below.
Liquid Chromatography—Mass Spectrometry: Quantification of test compounds and control substrate was performed by analyte/internal standard peak area ratio (PAR) values measured on a Thermo Q-Exactive mass spectrometer coupled to a Dionex UltiMate 3000 HPLC with a Leap Technologies HTC PAL autosampler. The column used for analysis was a Waters Acquity BEH C18 (1.7 μm particle size, 2.1×50 mm). Mobile phase A consisted of 0.1% (v/v) formic acid in water. Mobile phase B consisted of 0.1% (v/v) formic acid in acetonitrile. Elution of analytes was achieved by a series of linear gradients varying the proportions of A and B. The mass spectrometer was calibrated on a weekly basis and mass tolerance of 5 ppm was used.
Metabolic stabilities in S9 fractions were determined by measuring the rates of disappearance of test compound and positive control substrate.
Data (% of substrate remaining) were plotted on a semi-log scale and fitted using an exponential decline model:
Where Ct—% of substrate remaining at time=t; C0—% of substrate remaining at time=0; t—time; T½—half-life The Half-life (T½) is determined by the following equation: […]
Assuming a first-order reaction, the slope (k) is extrapolated from the aforementioned plotted data.
Regarding `N#C[C@]1(COC(=O)C2CCCCC2)O[C@@H](c2ccc3c(N)ncnn23)[C@H](O)[C@@H]1O` [Compound 19, ((2R,3S,4R,5S)-5-(4-aminopyrrolo[2,1-f][1,2,4]triazin-7-yl)-2-cyano-3,4-dihydroxytetrahydrofuran-2-yl)methyl cyclohexanecarboxylate], the half-life at 2 μM worked out at 2 min. `CC(=O)OC[C@@]1(C#N)O[C@@H](c2ccc3c(N)ncnn23)[C@H](O)[C@@H]1O` [Compound 4, ((2R,3S,4R,5S)-5-(4-aminopyrrolo[2,1-f][1,2,4]triazin-7-yl)-2-cyano-3,4-dihydroxytetrahydrofuran-2-yl)methyl acetate]: the half-life at 2 μM is 9 min. Still for that read-out and setting: the result for `CC(C)(C)CC(=O)OC[C@@]1(C#N)O[C@@H](c2ccc3c(N)ncnn23)[C@H](O)[C@@H]1O` [Compound 13, ((2R,3S,4R,5S)-5-(4-aminopyrrolo[2,1-f][1,2,4]triazin-7-yl)-2-cyano-3,4-dihydroxytetrahydrofuran-2-yl)methyl 3,3-dimethylbutanoate] reads 408 min. In the case of `CC(C)[C@H](N)C(=O)OC[C@@]1(C#N)O[C@@H](c2ccc3c(N)ncnn23)[C@H](O)[C@@H]1O` [Compound 12, ((2R,3S,4R,5S)-5-(4-aminopyrrolo[2,1-f][1,2,4]triazin-7-yl)-2-cyano-3,4-dihydroxytetrahydrofuran-2-yl)methyl L-valinate], the half-life at 2 μM is 2 min. On to `CCCC(=O)OC[C@@]1(C#N)O[C@@H](c2ccc3c(N)ncnn23)[C@H](O)[C@@H]1O` [Compound 6, ((2R,3S,4R,5S)-5-(4-aminopyrrolo[2,1-f][1,2,4]triazin-7-yl)-2-cyano-3,4-dihydroxytetrahydrofuran-2-yl)methyl butyrate], for which the half-life at 2 μM stood at 8 min. Take `N#C[C@]1(COC(=O)c2ccccc2)O[C@@H](c2ccc3c(N)ncnn23)[C@H](O)[C@@H]1O` [Compound 2, ((2R,3S,4R,5S)-5-(4-aminopyrrolo[2,1-f][1,2,4]triazin-7-yl)-2-cyano-3,4-dihydroxytetrahydrofuran-2-yl)methyl benzoate]: the half-life at 2 μM was found to be 32 min. On to `CCC(CC)C(=O)OC[C@@]1(C#N)O[C@@H](c2ccc3c(N)ncnn23)[C@H](O)[C@@H]1O` [Compound 9, ((2R,3S,4R,5S)-5-(4-aminopyrrolo[2,1-f][1,2,4]triazin-7-yl)-2-cyano-3,4-dihydroxytetrahydrofuran-2-yl)methyl 2-ethylbutanoate], for which the half-life at 2 μM amounted to 57 min.

As to `CC(C)C(=O)OC[C@@]1(C#N)O[C@@H](c2ccc3c(N)ncnn23)[C@H](O)[C@@H]1O` [Compound 1, ((2R,3S,4R,5S)-5-(4-aminopyrrolo[2,1-f][1,2,4]triazin-7-yl)-2-cyano-3,4-dihydroxytetrahydrofuran-2-yl)methyl isobutyrate], the half-life at 2 μM was determined as 25 min.

`CC(C)CC(=O)OC[C@@]1(C#N)O[C@@H](c2ccc3c(N)ncnn23)[C@H](O)[C@@H]1O` [Compound 3, ((2R,3S,4R,5S)-5-(4-aminopyrrolo[2,1-f][1,2,4]triazin-7-yl)-2-cyano-3,4-dihydroxytetrahydrofuran-2-yl)methyl 3-methylbutanoate]: the half-life at 2 μM was determined as 17 min.

`N#C[C@]1(COC(=O)C2CC2)O[C@@H](c2ccc3c(N)ncnn23)[C@H](O)[C@@H]1O` [Compound 7, ((2R,3S,4R,5S)-5-(4-aminopyrrolo[2,1-f][1,2,4]triazin-7-yl)-2-cyano-3,4-dihydroxytetrahydrofuran-2-yl)methyl cyclopropanecarboxylate]: the half-life at 2 μM is 100 min. Same read-out and setting: under `CC1(C(=O)OC[C@@]2(C#N)O[C@@H](c3ccc4c(N)ncnn34)[C@H](O)[C@@H]2O)CC1` [Compound 15, ((2R,3S,4R,5S)-5-(4-aminopyrrolo[2,1-f][1,2,4]triazin-7-yl)-2-cyano-3,4-dihydroxytetrahydrofuran-2-yl)methyl 1-methylcyclopropane-1-carboxylate] stands 123 min. On the same count and under the same terms, the result for `CCC(CC)C(=O)Nc1ncnn2c([C@@H]3O[C@](C#N)(COC(=O)C(CC)CC)[C@@H](O)[C@H]3O)ccc12` [Compound 11, ((2R,3S,4R,5S)-2-cyano-5-(4-(2-ethylbutanamido)pyrrolo[2,1-f][1,2,4]triazin-7-yl)-3,4-dihydroxytetrahydrofuran-2-yl)methyl 2-ethylbutanoate] reads 19 min; that for `N#C[C@]1(COC(=O)CC2CCC2)O[C@@H](c2ccc3c(N)ncnn23)[C@H](O)[C@@H]1O` [Compound 16, ((2R,3S,4R,5S)-5-(4-aminopyrrolo[2,1-f][1,2,4]triazin-7-yl)-2-cyano-3,4-dihydroxytetrahydrofuran-2-yl)methyl 2-cyclobutylacetate], 3 min; that for `N#C[C@]1(COC(=O)C2CCC2)O[C@@H](c2ccc3c(N)ncnn23)[C@H](O)[C@@H]1O` [Compound 8, ((2R,3S,4R,5S)-5-(4-aminopyrrolo[2,1-f][1,2,4]triazin-7-yl)-2-cyano-3,4-dihydroxytetrahydrofuran-2-yl)methyl cyclobutanecarboxylate], 4 min. Still for that read-out and setting: under `CCC(=O)OC[C@@]1(C#N)O[C@@H](c2ccc3c(N)ncnn23)[C@H](O)[C@@H]1O` [Compound 5, ((2R,3S,4R,5S)-5-(4-aminopyrrolo[2,1-f][1,2,4]triazin-7-yl)-2-cyano-3,4-dihydroxytetrahydrofuran-2-yl)methyl propionate] stands 6 min. In the case of `CC(C)(C)C(=O)OC[C@@]1(C#N)O[C@@H](c2ccc3c(N)ncnn23)[C@H](O)[C@@H]1O` [Compound 10, ((2R,3S,4R,5S)-5-(4-aminopyrrolo[2,1-f][1,2,4]triazin-7-yl)-2-cyano-3,4-dihydroxytetrahydrofuran-2-yl)methyl pivalate], the half-life at 2 μM was 123 min.

`Cc1ccc(C(=O)OC[C@@]2(C#N)O[C@@H](c3ccc4c(N)ncnn34)[C@H](O)[C@@H]2O)cc1` [Compound 14, ((2R,3S,4R,5S)-5-(4-aminopyrrolo[2,1-f][1,2,4]triazin-7-yl)-2-cyano-3,4-dihydroxytetrahydrofuran-2-yl)methyl 4-methylbenzoate]: the half-life at 2 μM is 22 min. On the same count and under the same terms, the result for `N#C[C@]1(COC(=O)C2CCCC2)O[C@@H](c2ccc3c(N)ncnn23)[C@H](O)[C@@H]1O` [Compound 18, ((2R,3S,4R,5S)-5-(4-aminopyrrolo[2,1-f][1,2,4]triazin-7-yl)-2-cyano-3,4-dihydroxytetrahydrofuran-2-yl)methyl cyclopentanecarboxylate] reads 3 min.

Another data set deals with Respiratory syncytial virus recombinant with luciferase (RSV-Luc5) in HEp-2 cells. The experiment in a line: HEp-2 RSV-Luc5 384-well Assay (EC50 RSVFLUC Hep2-384, Ex. R). Format: cell-based. Particulars: human respiratory syncytial virus, HEp-2, 72 h, read-out: RSV Hep-2 FLuc EC50 (per Ex. R). From the text: Example R. HEp-2 RSV-Luc5 384-well Assay (EC50 RSVFLUC Hep2-384)
HEp-2 cell line was purchased from ATCC (Manassas, VA Cat #CCL-23) and maintained in Dulbecco's […] (DMEM) (Corning, New York, NY, Cat #15-018CM) supplemented with 10% fetal bovine serum (FBS) (Hyclone, Logan, UT, Cat #SH30071-03) and 1× Penicillin-Streptonycin-L-Glutamine (Corning, New York, NY, Cat #30-009-CI). Cells were passaged 2 times per week to maintain sub-confluent densities and were used for experiments at passage 5-20. Respiratory syncytial virus recombinant with luciferase (RSV-Luc5) direct pelleted virus (≥1×107 TCID50/ml) was purchased from Microbiologics (Saint Cloud, MN). Viral replication was determined in HEp-2 cells in the following manner.
Compounds are prepared in 384-well polypropylene plates (Greiner, Monroe, NC, Cat#784201) with 8 compounds per plate in grouped replicates of 4 at 10 serially diluted concentrations (1:3).
HEp-2 cells were suspended in DMEM (supplemented with 10% FBS and 1× Penicillin-Streptomycin-L-Glutanine) and 60 uL of 4,000 cells per well were seeded into 384-well plates (Greiner, Monroe, NC, Cat #781080) using Biotek MultiFlo dispenser. […] Viral replication was then assessed by measuring luminescence signal using and Envision plate reader. […]
For orientation: EC50 means the concentration needed to bring the measured effect to its halfway point. On to `CC(C)C(=O)OC[C@@]1(C#N)O[C@@H](c2ccc3c(N)ncnn23)[C@H](O)[C@@H]1O` [Compound 1, ((2R,3S,4R,5S)-5-(4-aminopyrrolo[2,1-f][1,2,4]triazin-7-yl)-2-cyano-3,4-dihydroxytetrahydrofuran-2-yl)methyl isobutyrate], for which the EC50 came to 10.4 µM.

(Values after patent publication US20240199676A1, “ANTIVIRAL COMPOUNDS AND METHODS OF MAKING AND USING THE SAME” (Gilead Sciences, Inc., priority 2022, published 2024).)
